From patent publication US20070248705A1, “Agents for Activating the Transcription Factor Nrf2 and Foods Having Such Function” (KIRIN BEER KABUSHIKI KAISHA, priority 2004, published 2007)

Columns and labels:
heme oxygenase 1 (HO1) = test: Expression of genes controlled by Nrf2 in RAW264.7: HO1; type: cell-based, mouse; details: RAW264.7, 25 μM, 20 hours
Protocol: A mouse macrophage cell line RAW264.7 was seeded on a φ60 mm dish (9×10^5 cells), 2 ml of a D-MEM medium (Invitrogen) supplemented with 10% fetal bovine serum (HyClone) and penicillin-streptomycin (100 units/ml and 100 μg/ml, respectively; Sigma) was added, and the dish was incubated at 37° C. in an atmosphere of 5% CO2 for 2 days. The medium was replaced with a fresh medium containing individual samples and incubation was continued for another 20 hours. Then, the total RNA was prepared using TRIzol (Invitrogen) and purified using a RNeasy Mini kit (Qiagen) and an RNase-free DNase set (Qiagen). Further, cDNA was synthesized from 5 μg of the purified total RNA using a Thermo Script RT-PCR system (Invitrogen), and the amount of mRNA expression of various genes was determined using a FastStart DNA Master SYBR Green I kit (Roche) and a Light Cycler (Roche).
The amount of expression of the various genes was corrected by the amount of expression of the housekeeping gene PO and calculated as a relative expression level (n=2, mean±standard deviation). […]

[1] = test system: mouse macrophage cell line RAW264.7; test: Amount of intracellular glutathione; type: cell-based; details: RAW264.7, 25 μM, 20 hours
Protocol: A mouse macrophage cell line RAW264.7 was seeded on a φ60 mm dish (7×10^5 cells), 2 ml of a D-MEM medium (Invitrogen) supplemented with 10% fetal bovine serum (HyClone) and penicillin-streptomycin (100 units/ml and 100 μg/ml, respectively; Sigma) was added, and the dish was incubated at 37° C. in an atmosphere of 5% CO2 for 2 days. The medium was replaced with a fresh medium containing individual samples and incubation was continued for another 20 hours. The samples added were isohumulone (IH(F)) and isohumulone (IcH(G)) at a concentration of 25 μM. The cells were recovered, broken by ultrasonication, and centrifuged to obtain the supernatant, and the amount of the total intracellular glutathione was measured using a glutathione assay kit (Cayman Chemical) (n=2, mean±standard deviation). As a positive control, 15dPGJ2 (Cayman Chemical) was used.

## CC(C)=CCC(=O)C1(O)C(O)=C(C(=O)CC(C)C)C(=O)C1CC=C(C)C (centres unmarked) [IH (F), isohumulone]
Heme oxygenase 1 (HO1)
  expression of HO1: augmented the expression
[1]
  amount of the total intracellular glutathione: Increased the amount of the total intracellular glutathione
